Reference: patent US5328902A, “7-(substituted)-9-[(substituted glycyl)amido]-6-demethyl-6-deoxytetracyclines” (American Cyanamid Co., priority 1992, dated 1994)
Values after ≈ are worked out from the molar mass of the structure shown.

How the values were obtained:
Assay type in all cases: cell-based
E. coli J3272 Tet C = test: microbe, parasite or virus in culture; details: E. coli J3272 Tet C
[1] = tested on: S. aureus UBMS 90-1 Tet M; test: microbe, parasite or virus in culture; details: S. aureus UBMS 90-1 Tet M
Enterococcus 12201 = test: MIC, agar dilution; details: Enterococcus 12201
[2] = tested on: S. hemolyticus AVHAH 88-3; test: MIC, agar dilution; details: S. hemolyticus AVHAH 88-3
E. coli PRP1 Tet A = test: microbe, parasite or virus in culture; details: E. coli PRP1 Tet A
E. coli BAJ9003 IMP MUT = test: microbe, parasite or virus in culture; details: E. coli BAJ9003 IMP MUT
[3] = tested on: E. coli MC 4100 TNIOC Tet B; test: microbe, parasite or virus in culture; details: E. coli MC 4100 TNIOC Tet B
E. coli UBMS 88-1 Tet B = test: microbe, parasite or virus in culture; details: E. coli UBMS 88-1 Tet B; 18 hours at 35° C.
S. aureus UBMS 88-4 = test: MIC, agar dilution; details: S. aureus UBMS 88-4
S. mariescens FPOR 8733 = test: MIC, agar dilution
E. coli J2175 = test: MIC, agar dilution; details: E. coli J2175
E. coli UBMS 90-4 Tet M = test: microbe, parasite or virus in culture; details: E. coli UBMS 90-4 Tet M
[4] = tested on: Ps. acruginosa ATCC 27853; test: MIC, agar dilution; details: Ps. acruginosa ATCC 27853
S. aureus NEMC 8769 = test: MIC, agar dilution; details: S. aureus NEMC 8769
S. aureus SMITH (MP) = test: MIC, agar dilution; details: S. aureus SMITH (MP)
E. faecalis ATCC 29212 = test: MIC, agar dilution; details: E. faecalis ATCC 29212
E. coli UBMS 89-1 Tet M = test: microbe, parasite or virus in culture; details: E. coli UBMS 89-1 Tet M
E. coli #311 (MP) = test: MIC, agar dilution; details: E. coli #311 (MP)
[5] = tested on: X. maltophilia NEMC 87210; test: MIC, agar dilution
[6] = tested on: S. aureus UBMS 88-5 Tet M; test: microbe, parasite or virus in culture; details: S. aureus UBMS 88-5 Tet M
[7] = tested on: S. aureus UBMS 88-7 Tet K; test: microbe, parasite or virus in culture; details: S. aureus UBMS 88-7 Tet K
S. aureus IVES 1 983 = test: MIC, agar dilution; details: S. aureus IVES 1 983
S. aureus UBMS 90-3 = test: MIC, agar dilution; details: S. aureus UBMS 90-3
E. coli ATCC 25922 = test: MIC, agar dilution; details: E. coli ATCC 25922
E. coli UBMS 90-5 = test: MIC, agar dilution
S. aureus ATCC 29213 = test: MIC, agar dilution; details: S. aureus ATCC 29213
[8] = tested on: S. aureus UBMS 90-2 Tet M; test: microbe, parasite or virus in culture; details: S. aureus UBMS 90-2 Tet M
E. coli J3272 Tet D = test: microbe, parasite or virus in culture; details: E. coli J3272 Tet D
S. aureus IVES 2943 = test: MIC, agar dilution; details: S. aureus IVES 2943
[9] = tested on: E. coli UBMS 89-2 Tet sens.; test: MIC, agar dilution; details: E. coli UBMS 89-2 Tet sens.
[10] = tested on: E. coli MC 4100 Tet sens.; test: MIC, agar dilution
S. aureus ROSE (MP) = test: MIC, agar dilution; details: S. aureus ROSE (MP)

| Compound | MIC (E. coli J3272 Tet C) [µg/mL] | MIC [1] [µg/mL] | MIC (Enterococcus 12201) [µg/mL] | MIC [2] [µg/mL] | MIC (E. coli PRP1 Tet A) [µg/mL] | MIC (E. coli BAJ9003 IMP MUT) [µg/mL] | MIC [3] [µg/mL] | MIC (E. coli UBMS 88-1 Tet B) [µg/mL] | MIC (S. aureus UBMS 88-4) [µg/mL] | MIC (S. mariescens FPOR 8733) [µg/mL] | MIC (E. coli J2175) [µg/mL] | MIC (E. coli UBMS 90-4 Tet M) [µg/mL] | MIC [4] [µg/mL] | MIC (S. aureus NEMC 8769) [µg/mL] | MIC (S. aureus SMITH (MP)) [µg/mL] | MIC (E. faecalis ATCC 29212) [µg/mL] | MIC (E. coli UBMS 89-1 Tet M) [µg/mL] | MIC (E. coli #311 (MP)) [µg/mL] | MIC [5] [µg/mL] | MIC [6] [µg/mL] | further results |
| --- | --- | --- | --- | --- | --- | --- | --- | --- | --- | --- | --- | --- | --- | --- | --- | --- | --- | --- | --- | --- | --- |
| CN(C)c1cc(NC(=O)CNCCO)c(O)c2c1CC1CC3C(N(C)C)C(O)=C(C(N)=O)C(=O)C3(O)C(O)=C1C2=O.Cl (stereo not drawn) [P, [4S-(4alpha,12aalpha)]-4,7-Bis(dimethylamino)-1.4,4a,5,5a,6,11,12a-octahydro-3,10, 12,12a-tetrahydroxy-9-[[[(2-hydroxyethyl)amino]acetyl]amino]-1,11-dioxo-2-naphthacenecarboxamide monohydrochloride] | > 32 | 32 | 8 | 32 | > 32 | 2 | > 32 | > 32 | 8 | > 32 | 32 | 32 | > 32 | 4 | 4 | 4 | > 32 | 16 | > 32 | 32 | MIC [7]: 32 µg/mL; MIC (S. aureus IVES 1 983): > 32 µg/mL; MIC (S. aureus UBMS 90-3): 8 µg/mL; MIC (E. coli ATCC 25922): 16 µg/mL; MIC (E. coli UBMS 90-5): 32 µg/mL; MIC (S. aureus ATCC 29213): 8 µg/mL; MIC [8]: 16 µg/mL; MIC (E. coli J3272 Tet D): 16 µg/mL; MIC (S. aureus IVES 2943): > 32 µg/mL; MIC [9]: > 32 µg/mL; MIC [10]: 4 µg/mL; MIC (S. aureus ROSE (MP)): > 32 µg/mL |
| CN(C)c1cc(NC(=O)CNN2CCCCC2)c(O)c2c1CC1CC3C(N(C)C)C(O)=C(C(N)=O)C(=O)C3(O)C(O)=C1C2=O (stereo not drawn) [W, [4S-(4alpha,12aalpha)]-4,7-Bis(dimethylamino)-1,4,4a,5,5a,6,11,12a-octahydro-3,10, 12,12a-tetrahydroxy-hydroxy-1,11-dioxo-9[[(1-piperidinylamino)acetyl]amino]-2naphthacenecarboxamide] | > 32 | > 32 | > 32 | > 32 | > 32 | 16 (≈ 26.1 µM) | > 32 | > 32 | > 32 | > 32 | > 32 | > 32 | > 32 | > 32 | 16 (≈ 26.1 µM) | > 32 | > 32 | > 32 | > 32 | > 32 | MIC [7]: > 32 µg/mL; MIC (S. aureus IVES 1 983): > 32 µg/mL; MIC (S. aureus UBMS 90-3): 16 µg/mL (≈ 26.1 µM); MIC (E. coli ATCC 25922): > 32 µg/mL; MIC (E. coli UBMS 90-5): > 32 µg/mL; MIC (S. aureus ATCC 29213): 32 µg/mL (≈ 52.2 µM); MIC [8]: > 32 µg/mL; MIC (E. coli J3272 Tet D): > 32 µg/mL; MIC (S. aureus IVES 2943): > 32 µg/mL; MIC [9]: > 32 µg/mL; MIC [10]: 32 µg/mL (≈ 52.2 µM); MIC (S. aureus ROSE (MP)): > 32 µg/mL |
| CN(CCO)CC(=O)Nc1cc(N(C)C)c2c(c1O)C(=O)C1=C(O)[C@]3(O)C(=O)C(C(N)=O)=C(O)[C@@H](N(C)C)C3CC1C2 (stereo partly drawn) [Q] | > 32 | 32 (≈ 54.5 µM) | 4 (≈ 6.81 µM) | 16 (≈ 27.2 µM) | > 32 | 2 (≈ 3.4 µM) | > 32 | 32 (≈ 54.5 µM) | 8 (≈ 13.6 µM) | 16 (≈ 27.2 µM) | 32 (≈ 54.5 µM) | 16 (≈ 27.2 µM) | > 32 | 8 (≈ 13.6 µM) | 8 (≈ 13.6 µM) | 4 (≈ 6.81 µM) | 32 (≈ 54.5 µM) | 32 (≈ 54.5 µM) | 8 (≈ 13.6 µM) | 16 (≈ 27.2 µM) | MIC [7]: 32 µg/mL (≈ 54.5 µM); MIC (S. aureus IVES 1 983): > 32 µg/mL; MIC (S. aureus UBMS 90-3): 8 µg/mL (≈ 13.6 µM); MIC (E. coli ATCC 25922): 32 µg/mL (≈ 54.5 µM); MIC (E. coli UBMS 90-5): 32 µg/mL (≈ 54.5 µM); MIC (S. aureus ATCC 29213): 16 µg/mL (≈ 27.2 µM); MIC [8]: 16 µg/mL (≈ 27.2 µM); MIC (E. coli J3272 Tet D): 32 µg/mL (≈ 54.5 µM); MIC (S. aureus IVES 2943): > 32 µg/mL; MIC [9]: 32 µg/mL (≈ 54.5 µM); MIC [10]: 4 µg/mL (≈ 6.81 µM); MIC (S. aureus ROSE (MP)): > 32 µg/mL |
